Laboratory results taken from patent publication US10364263B2, “Cyclic phosphates and cyclic phosphoramidates for the treatment of neurologic disorders” (Retrophin, Inc., priority 2015, dated 2019).

System: PANK2 silenced human neuroblastoma IMR32 cells (PANK2−/−)
Experiment: Coenzyme A assay in PANK2 silenced cells (LC-MS quantification of free CoA)
Format: cell-based
Conditions: compound added twice (24 h + 24 h), relative to 0.1% DMSO controls
Experimental: A human neuroblastoma IMR32 cell line (ATCC) with stably PANK2 silencing was obtained by lentiviral-delivered small hairpin RNA and cultured in MEM (Invitrogen) supplemented with 10% fetal bovine serum, 2 mM glutamine, 1% penicillin-streptomycin, 1 mM sodium pyruvate, 1 mM non essential amino acids and 1.5 g/l sodium bicarbonate.
For lentiviral shRNA expression, Human Emryonic Kidney HEK-293T cells (ATCC) were transfected with the appropriate pGFP-Lenti-shRNA constructs and packaging plasmids according to manufacturer's protocol (Origene Technologies, Inc.). Four different gene-specific shRNA expression vectors designed against multiple splice variants of PANK2 (Gene ID 80025) were used for transfection. A non-silencing shRNA construct (scrambled shRNA) and an empty vector expressing GFP alone were used as negative controls. The GFP tag subcloned into the lentiviral vectors was used to monitor the transfection efficiency.
IMR32 cells were plated on 150 cm dishes 48 h before transduction with lentiviral particles.
Three days after transduction medium was removed and replaced with fresh medium containing […] puromycin. Medium was replaced every 48 h. Levels of PANK2 expression on selected clones was assessed by Western Blot analysis.
To quantify CoA, PANK2^−/− IMR32 cells were plated on 12-well culture plates (Corning) at a density of 0.2×10^6 cells per well. After 72 h, compounds were freshly dissolved in DMSO and added to the culture medium to yield a final solvent concentration of 0.1% (v/v). Controls with medium containing 0.1% DMSO without test compounds were also included in each plate. Compound treated cells were incubated for 24 h at 37° C. Treatment was repeated after 24 h with newly dissolved compound and cells were further incubated at 37° C. for additional 24 h. Before LC-MS analysis of CoA levels, cells were harvested, counted, and collected in a 15 ml falcon tube and centrifuged at 200×g for 5 min at 4° C. Supernatant was removed and cell pellet was washed in 10 ml of ice-cold PBS. To further confirm that the numbers of cells in each sample were equivalent, an equal fraction of pellet was collected from each sample and subjected to protein determination analysis. After centrifugation and supernatant removal, the cell pellet was rapidly frozen in Liquid Nitrogen and stored at −80° C. until analysis.
Intracellular CoA levels were calculated considering an intracellular volume of 1 million cells=2 μl.
The 1×10^6 cellular pellet was extracted with 120 μl of aqueous 20% TFA. This solution was stirred for 2 min, sonicated in ultrasonic bath for 2 min, then stirred again for 1 min, and centrifuged for 15 min at 14000 g and at 4° C.
100 μL samples of supernatant were dried under N2 at 20° C. in the dark.
Samples were re-dissolved in 100 μl of 10 mM NH4^+ AcO^− buffer pH 5.1+IS (Dextrorphan 50 ng/ml), stirred for 2 min, sonicated in ultrasonic bath for 1 min, then stirred again for 1 min, and injected into LC-MS.
LC-MS/MS was performed using an Agilent HPLC (1100 Series, USA). The LC system was interfaced with an API-4000 Q-Trap triple quadrupole mass spectrometer (AB Sciex, Toronto, Canada) equipped with a TurbolonSpray ionization source operating in positive ion mode. Analyst™ software version 1.6 (AB Sciex, Toronto, Canada) was used for data acquisition and processing. CoA was separated using a Luna C18 column (2.0×50 mm; 5 μm particle size), column at 25° C. and flow rate of 0.2 ml/min. Injection volume was 15 μl. The mobile phases consisted of water containing 10 mM ammonium acetate pH 7 (mobile phase A) and MeCN-2-propanol 9:1 (mobile phase B). Elution was performed using a gradient starting at 2% B, holding at 2% B until 0.1 min, increasing to 98% B at 3.2 min, holding at 98% B until 4.5 min, returning to 2% B at 4.6 min and holding at 2% B until 7.5 min. Precursor ions and MRM transitions used were: CoA m/z 768.1→261.6 and 768.1→136.1. […]

Row | Compound | PANK2−/− CoA (Fold Increase): fold increase in Coenzyme A (CoA) levels relative to controls [Fold Increase]
1 | COC(=O)CCNC(=O)[C@@H]1O[P@@](=O)(OCOC(=O)c2cc(C(C)(C)C)nn2C)OCC1(C)C [2-169, (((2S,4R)-4-((3-methoxy-3-oxopropyl)carbamoyl)-5,5-dimethyl-2-oxido-1,3,2-dioxaphosphinan-2-yl)oxy)methyl 3-(tert-butyl)-1-methyl-1H-pyrazole-5-carboxylate] | 20.26
2 | COC(=O)CCNC(=O)[C@@H]1O[P@](=O)(OCOC(=O)c2cc(C(C)(C)C)nn2C)OCC1(C)C [2-170, (((2R,4R)-4-((3-methoxy-3-oxopropyl)carbamoyl)-5,5-dimethyl-2-oxido-1,3,2-dioxaphosphinan-2-yl)oxy)methyl 3-(tert-butyl)-1-methyl-1H-pyrazole-5-carboxylate] | 82.88
3 | COC(=O)CCNC(=O)[C@@H]1O[P@@](=O)(OCOC(=O)NC(C)(C)COC(=O)[C@@H](NC(=O)OCc2ccccc2)C(C)C)OCC1(C)C [2-172, 2-((((((2S,4R)-4-((3-methoxy-3-oxopropyl)carbamoyl)-5,5-dimethyl-2-oxido-1,3,2-dioxaphosphinan-2-yl)oxy)methoxy)carbonyl)amino)-2-methylpropyl ((benzyloxy)carbonyl)-L-valinate] | 1.95
4 | COC(=O)CCNC(=O)[C@@H]1OP(=O)(OCOC(=O)c2scnc2C(C)(C)C)OCC1(C)C (stereo partly drawn) [2-173, (((4R)-4-((3-methoxy-3-oxopropyl)carbamoyl)-5,5-dimethyl-2-oxido-1,3,2-dioxaphosphinan-2-yl)oxy)methyl 4-(tert-butyl)thiazole-5-carboxylate] | 2.57
5 | COC(=O)CCNC(=O)[C@@H]1OP(=O)(OCOC(=O)N[C@@H](CSC(=O)C(C)(C)C)C(=O)OCc2ccccc2)OCC1(C)C (stereo partly drawn) [2-174, benzyl N-(((((4R)-4-((3-methoxy-3-oxopropyl)carbamoyl)-5,5-dimethyl-2-oxido-1,3,2-dioxaphosphinan-2-yl)oxy)methoxy)carbonyl)-S-pivaloyl-L-cysteinate] | 93.99
6 | COC(=O)CCNC(=O)[C@@H]1OP(=O)(OCOC(=O)NCCSC(=O)[C@@H](NC(=O)OCc2ccccc2)C(C)C)OCC1(C)C (stereo partly drawn) [2-175, methyl 3-((4R)-2-(((S)-9-isopropyl-3,8,11-trioxo-13-phenyl-2,12-dioxa-7-thia-4,10-diazatridecyl)oxy)-5,5-dimethyl-2-oxido-1,3,2-dioxaphosphinane-4-carboxamido)propanoate] | 9.31
7 | COC(=O)CCNC(=O)[C@@H]1O[P@@](=O)(OCOC(=O)c2sncc2C)OCC1(C)C [2-176, (((2S,4R)-4-((3-methoxy-3-oxopropyl)carbamoyl)-5,5-dimethyl-2-oxido-1,3,2-dioxaphosphinan-2-yl)oxy)methyl 4-methylisothiazole-5-carboxylate] | 53.24
8 | COC(=O)CCNC(=O)[C@@H]1O[P@](=O)(OCOC(=O)c2sncc2C)OCC1(C)C [2-177, (((2R,4R)-4-((3-methoxy-3-oxopropyl)carbamoyl)-5,5-dimethyl-2-oxido-1,3,2-dioxaphosphinan-2-yl)oxy)methyl 4-methylisothiazole-5-carboxylate] | 77.18
9 | COC(=O)CCNC(=O)[C@@H]1O[P@@](=O)(Oc2ccc(F)cc2)OCC1(C)C [2-178, methyl 3-((2S,4R)-2-(4-fluorophenoxy)-5,5-dimethyl-2-oxido-1,3,2-dioxaphosphinane-4-carboxamido)propanoate] | 2.3
10 | COC(=O)CCNC(=O)[C@@H]1O[P@](=O)(Oc2ccc(F)cc2)OCC1(C)C [2-179, methyl 3-((2R,4R)-2-(4-fluorophenoxy)-5,5-dimethyl-2-oxido-1,3,2-dioxaphosphinane-4-carboxamido)propanoate] | 87.22
11 | COC(=O)CCNC(=O)[C@@H]1OP(=O)(OCOC(=O)N[C@@H](CSC(=O)C(C)(C)C)C(=O)O)OCC1(C)C (stereo partly drawn) [2-180, N-(((((4R)-4-((3-methoxy-3-oxopropyl)carbamoyl)-5,5-dimethyl-2-oxido-1,3,2-dioxaphosphinan-2-yl)oxy)methoxy)carbonyl)-S-pivaloyl-L-cysteine] | 26.8
12 | COC(=O)CCNC(=O)[C@@H]1OP(=O)(OCOC(=O)NCCOC(=O)[C@@H](NC(=O)OCc2ccccc2)C(C)C)OCC1(C)C (stereo partly drawn) [2-181, 2-((((((4R)-4-((3-methoxy-3-oxopropyl)carbamoyl)-5,5-dimethyl-2-oxido-1,3,2-dioxaphosphuian-2-yl)oxy)methoxy)carbonyl)amino) ethyl((benzyloxy)carbonyl)-L-valinate] | 49.59
13 | COC(=O)CCNC(=O)[C@@H]1O[P@@](=O)(OCOC(=O)c2cc(C)nn2C)OCC1(C)C [2-182, (((2S,4R)-4-((3-methoxy-3-oxopropyl)carbamoyl)-5,5-dimethyl-2-oxido-1,3,2-dioxaphosphinan-2-yl)oxy)methyl 1,3-dimethyl-lH-pyrazole-5-carboxylate] | 24.98
14 | COC(=O)CCNC(=O)[C@@H]1OP(=O)(OCOC(=O)NCCOC(=O)C(C)(C)C)OCC1(C)C (stereo partly drawn) [2-183, 2-((((((4R)-4-((3-methoxy-3-oxopropyl)carbamoyl)-5,5-dimethyl-2-oxido-1,3,2-dioxaphosphinan-2-yl)oxy)methoxy)carbonyl)amino)ethyl pivalate] | 3.5
15 | COC(=O)CCNC(=O)[C@@H]1O[P@@](=O)(OCOC(=O)c2ccnn2C)OCC1(C)C [2-184, (((2S,4R)-4-((3-methoxy-3-oxopropyl)carbamoyl)-5,5-dimethyl-2-oxido-1,3,2-dioxaphosphinan-2-yl)oxy)methyl 1-methyl-1H-pyrazole-5-carboxylate] | 21.67
16 | COC(=O)CCNC(=O)[C@@H]1O[P@](=O)(OCOC(=O)c2ccnn2C)OCC1(C)C [2-185, (((2R,4R)-4-((3-methoxy-3-oxopropyl)carbamoyl)-5,5-dimethyl-2-oxido-1,3,2-dioxaphosphinan-2-yl)oxy)methyl 1-methyl-1H-pyrazole-5-carboxylate] | 114.15
17 | COC(=O)CCNC(=O)[C@@H]1O[P@@](=O)(OCOC(=O)c2cc(C(C)(C)C)n[nH]2)OCC1(C)C [2-186, (((2S,4R)-4-((3-methoxy-3-oxopropyl)carbamoyl)-5,5-dimethyl-2-oxido-1,3,2-dioxaphosphuian-2-yl)oxy)methyl 3-(tert-butyl)-1H-pyrazole-5-carboxylate] | 101.14
18 | COC(=O)CCNC(=O)[C@@H]1O[P@@](=O)(OCOC(=O)c2scnc2C(C)C)OCC1(C)C [2-187, (((2S,4R)-4-((3-methoxy-3-oxopropyl)carbamoyl)-5,5-dimethyl-2-oxido-1,3,2-dioxaphosphinan-2-yl)oxy)methyl 4-isopropylthiazole-5-carboxylate] | 112.41
